In brackets after ≈: the same amount, converted by molar mass. Activity calls are given as the source filed them. The calls are words filed in the database; no cut-off is given here.
Columns and labels:
Staphylococcus aureus [1] = assay: Antibacterial activity against methicillin-sensitive Staphylococcus aureus ATCC 29213 measured after 24 hrs by turbidimetric assay; format: functional
Staphylococcus aureus [2] = assay: Antibacterial activity against methicillin-resistant Staphylococcus aureus Mu 50 measured after 24 hrs by turbidimetric assay; format: functional
Escherichia coli = assay: Antibacterial activity against Escherichia coli ATCC 25922 measured after 24 hrs by turbidimetric assay; format: functional
Staphylococcus aureus [3] = assay: Resistance development in methicillin-resistant Staphylococcus aureus Mu 50 assessed as MIC after 9 passages by broth dilution method; format: functional
Staphylococcus aureus [4] = assay: Resistance development in methicillin-resistant Staphylococcus aureus Mu 50 assessed as fold change in MIC after and before 6 passages by broth dilution method; format: functional
[5] = target: T1, MecA (Staphylococcus aureus) (UniProt Q7DHH4); assay: Inhibition of PBP2a in methicillin-resistant Staphylococcus aureus Mu 50 assessed as disruption of bacterial cell wall integrity by measuring release of intracellular contents at 64 ug/ml measured after 12 hrs by transmission electron microscopy; format: cell-based; details: dose 64.0 µg/ml
T1 sequence (whole entry): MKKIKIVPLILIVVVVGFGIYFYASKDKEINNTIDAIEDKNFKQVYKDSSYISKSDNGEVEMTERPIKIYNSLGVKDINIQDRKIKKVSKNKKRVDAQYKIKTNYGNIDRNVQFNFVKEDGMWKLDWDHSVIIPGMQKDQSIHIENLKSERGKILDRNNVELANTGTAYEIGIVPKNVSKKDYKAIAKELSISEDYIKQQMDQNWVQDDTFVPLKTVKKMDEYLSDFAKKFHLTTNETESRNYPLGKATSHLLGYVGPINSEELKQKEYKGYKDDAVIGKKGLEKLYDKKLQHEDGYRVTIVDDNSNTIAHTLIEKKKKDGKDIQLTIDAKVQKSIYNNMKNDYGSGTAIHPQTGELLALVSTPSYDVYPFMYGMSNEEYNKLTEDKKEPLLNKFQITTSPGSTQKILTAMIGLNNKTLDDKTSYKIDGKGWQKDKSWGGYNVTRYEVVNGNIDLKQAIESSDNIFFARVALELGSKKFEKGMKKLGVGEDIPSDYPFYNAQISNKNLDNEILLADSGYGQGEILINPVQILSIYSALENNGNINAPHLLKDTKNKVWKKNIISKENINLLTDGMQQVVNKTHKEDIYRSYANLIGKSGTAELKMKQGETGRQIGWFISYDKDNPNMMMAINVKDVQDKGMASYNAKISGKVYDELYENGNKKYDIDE

Staphylococcus aureus [6] = assay: Synergistic antibacterial activity against methicillin-resistant Staphylococcus aureus Mu 50 at 64 to 128 ug/ml measured at 1 hr interval for 24 hrs in presence of oxacillin; format: functional, organism-based; details: dose 64-128 µg/ml
[7] = Cytotoxicity against mouse BEND3 cells assessed as reduction in cell viability at 64 ug/ml measured after 24 hrs by CCK-8 assay; format: toxicity, cell-based; details: bend3, 24 h, dose 64 µg/ml
Staphylococcus aureus [8] = assay: Antibacterial activity against methicillin-resistant Staphylococcus aureus Mu 50 at 4 to 32 ug/ml measured at 1 hr interval for 24 hrs; format: functional, organism-based; details: dose 4-32 µg/ml
Staphylococcus aureus [9] = assay: Bactericidal activity against methicillin-resistant Staphylococcus aureus Mu 50 assessed as reduction in colony formation at 8 to 32 ug/ml measured after 3 hrs by time-kill assay; format: functional, organism-based; details: dose 8-32 µg/ml
Staphylococcus aureus [10] = assay: Bactericidal activity against methicillin-resistant Staphylococcus aureus Mu 50 assessed as reduction in colony formation measured after 2 to 24 hrs by time-kill assay; format: functional, organism-based; details: dose 8-32 µg/ml, time 2-24 hrs
Staphylococcus aureus [11] = assay: Antibacterial activity against methicillin-sensitive Staphylococcus aureus ATCC 29213 at 4 to 32 ug/ml measured at 1 hr interval for 24 hrs; format: functional, organism-based; details: dose 4-32 µg/ml
[12] = target: T1, MecA (Staphylococcus aureus); assay: Inhibition of PBP2a in methicillin-resistant Staphylococcus aureus Mu 50 assessed as abnormal cell division at 16 ug/ml measured after 12 hrs by transmission electron microscopy; details: dose 16.0 µg/ml
[13] = target: T1, MecA (Staphylococcus aureus); assay: Inhibition of PBP2a in methicillin-resistant Staphylococcus aureus Mu 50 assessed as blurred cell wall boundaries at 16 ug/ml measured after 12 hrs by transmission electron microscopy; details: dose 16.0 µg/ml
[14] = Cytotoxicity against human intestinal epithelial cells assessed as reduction in cell viability at 64 ug/ml measured after 24 hrs by CCK-8 assay; format: toxicity, cell-based; details: dose 64 µg/ml
Staphylococcus aureus [15] = assay: Synergistic antibacterial activity against methicillin-resistant Staphylococcus aureus Mu 50 at 16 to 32 ug/ml measured at 1 hr interval for 24 hrs in presence of oxacillin; format: functional, organism-based; details: dose 16-32 µg/ml

Row | Structure (SMILES) | MIC (Staphylococcus aureus [1]) [µg/mL] | MIC (Staphylococcus aureus [2]) [µg/mL] | MIC (Escherichia coli) [µg/mL] | further results
1 | Nc1ncnc2c1c(C#Cc1ccc3ccccc3c1)cn2[C@@H]1O[C@H](CSCc2cccc(C(=O)O)c2)[C@@H](O)[C@H]1O | > 128 | 32 (≈ 56.5 µM) | > 128 | 
2 | Nc1ncnc2c1ncn2[C@@H]1O[C@H](CSCc2cc(C(=O)O)no2)[C@@H](O)[C@H]1O | > 128 | > 128 | > 128 | 
3 | CCO/N=C(\C(=O)N[C@@H]1C(=O)N2C(C(=O)[O-])=C(Sc3nc(-c4cc[n+](C)cc4)cs3)CS[C@H]12)c1nsc(NP(=O)(O)O)n1 [CEFTAROLINE FOSAMIL] |  | 32 (≈ 46.7 µM) |  | MIC (Staphylococcus aureus [3]): 128 µg/mL (≈ 187 µM); fold change (FC) (Staphylococcus aureus [4]): 2
4 | Cc1onc(-c2ccccc2)c1C(=O)N[C@@H]1C(=O)N2[C@@H]1SC(C)(C)[C@@H]2C(=O)O [OXACILLIN] |  | 64 (≈ 159 µM) |  | inhibition [5]: Active
5 | Nc1ncnc2c1c(C#Cc1cccc([N+](=O)[O-])c1)cn2[C@@H]1O[C@H](CSCc2cccc(C(=O)O)c2)[C@@H](O)[C@H]1O | > 128 | > 128 | > 128 | 
6 | N#Cc1cccc(CSC[C@H]2O[C@@H](n3cnc4c(N)ncnc43)[C@H](O)[C@@H]2O)c1 | > 128 | > 128 | > 128 | 
7 | Nc1ncnc2c1c(C#Cc1cccc(F)c1)cn2[C@@H]1O[C@H](CSCc2cccc(C(=O)O)c2)[C@@H](O)[C@H]1O | > 128 | > 128 | > 128 | 
8 | Nc1ncnc2c1ncn2[C@@H]1O[C@H](CSCc2cccc(C(=O)O)n2)[C@@H](O)[C@H]1O | > 128 | > 128 | > 128 | 
9 | Nc1ncnc2c1ncn2[C@@H]1O[C@H](CSCc2cccc(C(=O)O)c2)[C@@H](O)[C@H]1O | > 128 | > 128 | > 128 | 
10 | Nc1ncnc2c1c(C#Cc1cccnc1)cn2[C@@H]1O[C@H](CSCc2cccc(C(=O)O)c2)[C@@H](O)[C@H]1O | > 128 | > 128 | > 128 | 
11 | Nc1ncnc2c1c(C#Cc1ccccc1)cn2[C@@H]1O[C@H](CSCc2cccc(C(=O)O)c2)[C@@H](O)[C@H]1O | > 128 | > 128 | > 128 | 
12 | Nc1ncnc2c1c(C#Cc1ccc3sccc3c1)cn2[C@@H]1O[C@H](CSCc2cccc(C(=O)O)c2)[C@@H](O)[C@H]1O | > 128 | 16 (≈ 27.9 µM) | > 128 | MIC (Staphylococcus aureus [3]): 64 µg/mL (≈ 112 µM); Activity (Staphylococcus aureus [6]): Not active; Decreased The Activity Of Oxacillin; Activity [7]: Non-toxic; Activity (Staphylococcus aureus [8]): Active; Significant Inhibition Observed; Activity (Staphylococcus aureus [9]): Active; Significant Reduction Observed; Activity (Staphylococcus aureus [10]): Dose-dependent-effect; Activity (Staphylococcus aureus [11]): inactive; inhibition [12]: Active; Significantly Inhibits The Cross-Linking Of Peptidoglycan Substrates By Pbp2A; inhibition [13]: Active; Significantly Inhibits The Cross-Linking Of Peptidoglycan Substrates By Pbp2A; Activity [14]: Non-toxic; Activity (Staphylococcus aureus [15]): Active; Enhanced The Inhibitory Effect Of Oxacillin
13 | Nc1ncnc2c1ncn2[C@@H]1O[C@H](CSCc2cncc(C(=O)O)n2)[C@@H](O)[C@H]1O | > 128 | > 128 | > 128 | 
